Reference: patent US20230286958A1, “PLASMA KALLIKREIN INHIBITORS” (Merck Sharp & Dohme LLC, priority 2020, published 2023)
pIC50: −log10 of the molar value.

Experiments:
[1] = biological target: Human plasma kallikrein (Homo sapiens (Human), UniProt P03952); test: Kallikrein Assay (fluorogenic substrate Acetyl-K-P-R-AFC); assay type: biochemical; details: Plasma Kallikrein (PKal)
Procedure, shortened: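 Ki is derived from IC50 with the Cheng-Prusoff equation, and IC50 from the inflection point of a four-parameter logistic curve. The rate of AFC release is read with 0.5 nM purified enzyme and […] substrate at room temperature or 37 °C.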

[2] = biological target: human Factor XIa (Homo sapiens (Human), UniProt P03951); test: Factor XIa Assay (fluorogenic substrate GPR-AFC); assay type: biochemical; details: Factor XIa (FXIa)
human Factor XIa, sequence (P03951 388-625 limits assumed): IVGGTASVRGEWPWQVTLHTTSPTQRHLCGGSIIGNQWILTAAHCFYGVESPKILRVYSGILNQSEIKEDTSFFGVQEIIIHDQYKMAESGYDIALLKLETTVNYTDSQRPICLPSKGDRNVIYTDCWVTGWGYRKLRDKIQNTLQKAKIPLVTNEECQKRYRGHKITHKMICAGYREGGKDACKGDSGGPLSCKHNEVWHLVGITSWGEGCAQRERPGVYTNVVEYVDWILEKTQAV
human Factor XIa, sequence (P03951 19-387 partner limits assumed): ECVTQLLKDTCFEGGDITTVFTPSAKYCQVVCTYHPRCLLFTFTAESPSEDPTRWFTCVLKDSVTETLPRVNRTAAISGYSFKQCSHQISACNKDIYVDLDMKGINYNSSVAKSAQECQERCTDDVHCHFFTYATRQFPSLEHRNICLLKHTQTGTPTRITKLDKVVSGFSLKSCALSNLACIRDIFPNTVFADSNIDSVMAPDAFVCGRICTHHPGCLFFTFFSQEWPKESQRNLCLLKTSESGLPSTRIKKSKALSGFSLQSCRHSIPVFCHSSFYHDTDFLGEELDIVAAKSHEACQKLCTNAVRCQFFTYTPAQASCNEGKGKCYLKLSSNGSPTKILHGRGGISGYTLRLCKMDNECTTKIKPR

Human plasma kallikrein, sequence (P03952 391-638): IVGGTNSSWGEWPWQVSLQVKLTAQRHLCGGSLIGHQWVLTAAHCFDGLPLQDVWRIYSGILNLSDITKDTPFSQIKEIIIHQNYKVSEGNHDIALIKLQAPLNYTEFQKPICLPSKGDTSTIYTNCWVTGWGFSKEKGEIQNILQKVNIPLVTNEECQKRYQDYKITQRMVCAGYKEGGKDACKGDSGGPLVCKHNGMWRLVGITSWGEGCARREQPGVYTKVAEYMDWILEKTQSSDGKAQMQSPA
Human plasma kallikrein, sequence (P03952 20-390 partner): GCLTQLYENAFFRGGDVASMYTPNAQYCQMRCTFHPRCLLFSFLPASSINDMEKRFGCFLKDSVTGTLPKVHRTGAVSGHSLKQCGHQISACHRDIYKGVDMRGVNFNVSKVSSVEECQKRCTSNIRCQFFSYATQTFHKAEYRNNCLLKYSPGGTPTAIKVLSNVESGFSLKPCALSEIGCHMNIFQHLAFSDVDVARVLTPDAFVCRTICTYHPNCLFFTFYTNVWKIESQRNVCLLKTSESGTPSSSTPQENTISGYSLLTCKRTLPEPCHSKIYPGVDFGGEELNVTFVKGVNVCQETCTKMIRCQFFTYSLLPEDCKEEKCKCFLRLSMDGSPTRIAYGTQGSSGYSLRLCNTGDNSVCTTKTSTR

| Structure (SMILES) | pIC50 [1] | pIC50 [2] |
| --- | --- | --- |
| COCc1ncc(-c2c(C(F)F)ccc(Cl)c2F)nc1C(=O)Nc1cnn(C2(c3cnc(N4C[C@H]5C[C@H]5C4=O)c(C)n3)CC2)c1 [Example 221, 6-(3-Chloro-6-(difluoromethyl)-2-fluorophenyl)-3-(methoxymethyl)-N-(1-(1-(6-methyl-5-((1R,5S)-2-oxo-3-azabicyclo[3.1.0]hexan-3-yl)pyrazin-2-yl)cyclopropyl)-1H-pyrazol-4-yl)pyrazine-2-carboxamide] | 7.83 | < 5.00 |
| Cc1nc(C2(n3cc(NC(=O)c4nc(-c5c(C(F)F)ccc(Cl)c5F)cnc4COC(C)(C)C)cn3)CC2)cnc1N1C[C@H]2C[C@H]2C1=O [Example 222, 3-(tert-Butoxymethyl)-6-(3-chloro-6-(difluoromethyl)-2-fluorophenyl)-N-(1-(1-(6-methyl-5-((1R,5S)-2-oxo-3-azabicyclo[3.1.0]hexan-3-yl)pyrazin-2-yl)cyclopropyl)-1H-pyrazol-4-yl)pyrazine-2-carboxamide] | 7.78 | < 5.00 |
| CCc1ncc(-c2c(C(F)F)ccc(Cl)c2F)nc1C(=O)Nc1cnn(Cc2cc(C)c(N3C[C@H]4C[C@H]4C3=O)nn2)c1 [Example 233, 6-(3-Chloro-6-(difluoromethyl)-2-fluorophenyl)-3-ethyl-N-(1-((5-methyl-6-((1R,5S)-2-oxo-3-azabicyclo[3.1.0]hexan-3-yl)pyridazin-3-yl)methyl)-1H-pyrazol-4-yl)pyrazine-2-carboxamide] | 7.71 | 5.92 |

Compounds with a higher pIC50 [1], results first:

| pIC50 [1] | pIC50 [2] | Structure (SMILES) |
| --- | --- | --- |
| 8.59 | 6.13 | CCc1ncc(-c2c(C(F)F)ccc(Cl)c2F)nc1C(=O)Nc1cnn(Cc2cnc(N3C[C@H]4C[C@H]4C3=O)c3c2OCO3)c1 [Example 255, 6-(3-Chloro-6-(difluoromethyl)-2-fluorophenyl)-3-ethyl-N-(1-((4-((1R,5S)-2-oxo-3-azabicyclo[3.1.0]hexan-3-yl)-[1,3]dioxolo[4,5-c]pyridin-7-yl)methyl)-1H-pyrazol-4-yl)pyrazine-2-carboxamide] |
| 9.00 | 5.73 | Cc1nc(C2(n3cc(NC(=O)c4nc(-c5c(C(F)F)ccc(Cl)c5F)cnc4CO)cn3)CC2)cnc1N1C[C@H]2C[C@H]2C1=O [Example 223, 6-(3-Chloro-6-(difluoromethyl)-2-fluorophenyl)-3-(hydroxymethyl)-N-(1-(1-(6-methyl-5-((1R,5S)-2-oxo-3-azabicyclo[3.1.0]hexan-3-yl)pyrazin-2-yl)cyclopropyl)-1H-pyrazol-4-yl)pyrazine-2-carboxamide] |
| 9.22 | 7.60 | Cc1cc([C@@H](C)n2cc(NC(=O)c3nc(-c4c(OC(F)F)ccc(Cl)c4F)cnc3CO)cn2)cnc1N1C[C@H]2C[C@H]2C1=O [Example 227, 6-(3-Chloro-6-(difluoromethoxy)-2-fluorophenyl)-3-(hydroxymethyl)-N-(1-((R)-1-(5-methyl-6-((1R,5S)-2-oxo-3-azabicyclo[3.1.0]hexan-3-yl)pyridin-3-yl)ethyl)-1H-pyrazol-4-yl)pyrazine-2-carboxamide] |
| 9.40 | 7.39 | Cc1cc([C@H](C)n2cc(NC(=O)c3nc(-c4c(OC(F)F)ccc(Cl)c4F)cnc3CO)cn2)cnc1N1C[C@H]2C[C@H]2C1=O [Example 226] |
